Ten compounds from patent US20220211692A1, “Modulators of the Cystic Fibrosis Transmembrane Conductance Regulator Protein and Methods of Use” (AbbVie Global Enterprises Ltd., priority 2021, published 2022) can be followed below.

Where two headings read alike, the source gives them in different places. Bounds are passed on as bounds.

Assay [1] deals with T1, F508delCFTR (Homo sapiens, UniProt P13569, DEL508-508).
T1 construct: expressed in transfected cells; host or cells: CFBE41o- human lung derived epithelial cell line, doxycycline-induced expression
T1 sequence (P13569 with tags, fused parts or gaps DEL508-508): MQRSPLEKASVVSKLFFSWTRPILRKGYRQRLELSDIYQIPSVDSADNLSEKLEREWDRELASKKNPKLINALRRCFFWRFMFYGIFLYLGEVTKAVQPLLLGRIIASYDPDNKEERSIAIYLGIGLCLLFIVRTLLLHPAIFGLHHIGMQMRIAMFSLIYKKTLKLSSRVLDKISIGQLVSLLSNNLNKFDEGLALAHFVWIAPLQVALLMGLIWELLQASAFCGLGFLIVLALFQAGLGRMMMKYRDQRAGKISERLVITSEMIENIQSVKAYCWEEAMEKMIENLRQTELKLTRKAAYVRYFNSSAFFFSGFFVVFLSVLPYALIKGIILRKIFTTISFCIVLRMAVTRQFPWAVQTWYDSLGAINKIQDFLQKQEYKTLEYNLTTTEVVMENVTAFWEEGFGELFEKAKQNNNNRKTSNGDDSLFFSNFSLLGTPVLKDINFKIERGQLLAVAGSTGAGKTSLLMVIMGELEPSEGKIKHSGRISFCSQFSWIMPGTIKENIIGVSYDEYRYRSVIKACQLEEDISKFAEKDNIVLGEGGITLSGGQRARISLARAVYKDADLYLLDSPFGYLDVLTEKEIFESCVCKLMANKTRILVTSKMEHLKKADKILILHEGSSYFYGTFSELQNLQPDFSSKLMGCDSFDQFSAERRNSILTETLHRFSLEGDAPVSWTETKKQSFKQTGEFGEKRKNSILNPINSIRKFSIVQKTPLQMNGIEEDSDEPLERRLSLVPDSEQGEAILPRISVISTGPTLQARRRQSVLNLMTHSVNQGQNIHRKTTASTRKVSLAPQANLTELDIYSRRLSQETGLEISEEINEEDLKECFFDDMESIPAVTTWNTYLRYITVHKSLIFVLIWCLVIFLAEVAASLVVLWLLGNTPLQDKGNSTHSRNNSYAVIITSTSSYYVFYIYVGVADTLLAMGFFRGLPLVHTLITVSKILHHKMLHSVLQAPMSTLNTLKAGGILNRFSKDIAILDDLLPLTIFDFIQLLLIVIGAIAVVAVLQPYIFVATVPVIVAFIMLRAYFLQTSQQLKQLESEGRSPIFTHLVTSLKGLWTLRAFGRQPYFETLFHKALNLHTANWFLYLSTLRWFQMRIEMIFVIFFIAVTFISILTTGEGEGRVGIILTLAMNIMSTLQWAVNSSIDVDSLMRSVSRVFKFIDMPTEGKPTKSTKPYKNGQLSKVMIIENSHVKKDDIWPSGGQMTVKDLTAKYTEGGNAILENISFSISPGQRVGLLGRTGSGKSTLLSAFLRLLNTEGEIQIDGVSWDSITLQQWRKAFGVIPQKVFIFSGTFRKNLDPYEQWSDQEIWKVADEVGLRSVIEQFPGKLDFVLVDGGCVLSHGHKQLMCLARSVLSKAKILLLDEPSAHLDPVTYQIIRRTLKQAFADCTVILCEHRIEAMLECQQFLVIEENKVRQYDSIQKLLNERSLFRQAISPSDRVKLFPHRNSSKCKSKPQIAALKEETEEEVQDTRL
The assay is described as follows: Cell Surface Expression-Horse Radish Peroxidase (CSE-HRP) assay in CFBE41o-F508delCFTR-HRP cells. Format: cell-based. The settings on record: for EC50: CFBE41o-F508delCFTR-HRP cells, 18-24 hours at 33° C.; for Emax / Maximum % activity (with co-corrector): normalized to on-plate positive control; for Emax: read-out: Maximum % activity (without co-corrector). The procedure:
A cellular assay for measuring the F508delCFTR cell surface expression after correction with test compounds either without or with a co-corrector (2 μM of 3-[(2R,4R)-4-({[1-(2,2-difluoro-1,3-benzodioxol-5-yl)cyclopropyl]carbonyl}amino)-7-methoxy-3,4-dihydro-2H-chromen-2-yl]benzoic acid), was developed in human lung derived epithelial cell line (CFBE41o-) (Veit G et al, (2012) Mol Biol Cell. 23(21): 4188-4202). The development was achieved by expressing the F508delCFTR mutation along with a horseradish peroxidase (HRP) in the fourth exofacial loop, and then measuring the HRP activity using luminescence readout from these cells, CFBE41o-F508delCFTR-HIRP, that were incubated overnight with the test corrector compounds, either without or with the co-corrector. For this primary assay, the CFBE41o-F508delCFTR-HRP cells were plated in 384-well plates (Greiner Bio-one; Cat 781080) at 4,000 cells/well along with 0.5 μg/mL doxycycline to induce the F508delCFTR-HRP expression and further incubated at 37° C., […] for 68-72 hours. The test compounds were then added either without or with a co-corrector at the required concentrations and further incubated for 18-24 hours at 33° C. The highest concentration tested was 20 μM or 30 μM (GI-1 to GIII-36) with an 8-point concentration response curve using a 3-fold dilution in both the test compound without or with the co-corrector. Three replicate plates were run to determine one EC50. All plates contained negative controls (dimethyl sulfoxide, DMSO) and positive control (2 μM or 3 μM (GI-1 to GIII-36) of 3-[(2R,4R)-4-({[1-(2,2-difluoro-1,3-benzodioxol-5-yl)cyclopropyl]carbonyl}amino)-7-methoxy-3,4-dihydro-2H-chromen-2-yl]benzoic acid) as well as on-plate concentration response of the positive control. Post incubation, the plates were washed 5× times with Dulbecco's phosphate buffered saline (DPBS), followed by the addition of the HRP substrate, luminol (50 μL), and measuring the HRP activity using luminescence readout on EnVision® Multilabel Plate Reader (Perkin Elmer; product number 2104-0010). The raw counts from the experiment were analyzed using Accelrys® Assay Explorer v3.3.
Z′ greater than 0.5 was used as passing quality control criteria for the plates. The Z′ is defined as:
1−[3*SDPositive Control+3*SDNegative Control/Absolute(MeanPositive Control−MeanNegative Control)]
The % activity measured at each of the 8 test concentrations of the test compound added either without or with a co-corrector (2 μM or 3 μM (GI-1 to GIII-36) of 3-[(2R,4R)-4-({[1-(2,2-difluoro-1,3-benzodioxol-5-yl)cyclopropyl]carbonyl}amino)-7-methoxy-3,4-dihydro-2H-chromen-2-yl]benzoic acid) was normalized to the on-plate positive control using the following formulae:
% activity (Test compound without co-corrector)=[(test compound without co-corrector response−DMSO response)/(positive control response−DMSO response)]*100
% activity (Test compound with co-corrector)=[(test compound with co-corrector response−DMSO response)/(positive control response−DMSO response)]*100
The maximum % activity achieved for the test compound either without or with a co-corrector at any tested concentration is presented in Table 3 along with the respective EC50's calculated using the following general sigmoidal curve with variable Hill slope equation (described as Model 42 in the Accelrys® Assay Explorer v3.3 software):
General sigmoidal curve with concentration, response, top, bottom, EC50 and Hill slope. This model describes a sigmoidal curve with an adjustable baseline, a. The equation can be used to fit curves where response is either increasing or decreasing with respect to the independent variable, “x”.

Assay [2] concerns the target T2, F508del/F508del CFTR (Homo sapiens, UniProt P13569, DEL508-508).
T2 construct: cells isolated from CF patients with the homozygous mutation; endogenous in cells; host or cells: primary human bronchial epithelial (hBE) cells from CF patients homozygous for F508del
The assay is described as follows: Trans-Epithelial Current Clamp (TECC) assay using primary human bronchial epithelial cells. The format is cell-based. As to conditions: for Emax (% Dual): maximum percent activity relative to positive control (co-corrector 0.15 μM + potentiator 0.45 μM = 100%); for EC50: primary hBE cells F508del/F508del, test corrector with co-corrector and potentiator, 18-24 hours, equivalent CFTR current. The source says:
A cell-based assay was developed using the primary human bronchial epithelial cells (hBE cells) with F508del/F508del CFTR and other mutations.
Primary human bronchial epithelial (hBE) cells from CFTR patients with homozygous F508del/F508del mutation were expanded from 1×10^6 to 250×10^6 cells (Neuberger, T et al., 2011, Methods Mol Biol 741:39-54). For this purpose, cells isolated from CF patients with the homozygous mutation, procured from the CF center tissue procurement and cell culture core at the Marsico Lung Institute at UNC (Randell), the Cystic Fibrosis translational research center at McGill University (University), and Rosalind Franklin University Medical School (RFUMS) were seeded onto 24 well Corning (Cat #3378) filter plates that were coated with 3T3 conditioned media and grown at an air-liquid interface for 35 days using an Ultroser® G supplemented differentiation media. All the primary human bronchial epithelial cells were collected in accordance with institutional review board approval protocols. Apical surface mucus was removed 72 hours before the experiment by incubating the apical surface of the cells for 30 minutes with 3 mM dithiothreitol (DTT) prepared in Dulbecco's phosphate buffered saline (DPBS) with Ca^2+ and Mg^2+. This was followed with aspiration of the mucus from the apical surface along with DPBS. The apical surface was re-washed with phosphate buffered saline (PBS) incubated for 30 minutes followed with aspiration. These hBE cells were then incubated with the desired concentrations of the test C2 corrector compounds along with co-corrector, 4-[(2R,4R)-4-({[1-(2,2-difluoro-1,3-benzodioxol-5-yl)cyclopropyl]carbonyl}amino)-7-(difluoromethoxy)-3,4-dihydro-2H-chromen-2-yl]benzoic acid and potentiator, (5-{3-amino-5-[4-(trifluoromethoxy)benzene-1-sulfonyl]pyridin-2-yl}-1,3,4-oxadiazol-2-yl)methanol, for 18-24 hours at 37° C., 5% CO2. The desired concentrations of the correctors and potentiator compounds were prepared from the 10 mM stocks in differentiation media and were always applied on the basolateral side of the epithelial cells. We also used an assay format where a fixed concentration of potentiator was added chronically along with the corrector compounds. This chronic treatment with the potentiator helped eliminate any interaction that might happen with CFTR modulators (correctors and potentiators) and thereby determined the true efficacy of the modulator combinations reflective of clinical relevance.
The assay uses a Transepithelial Current Clamp (TECC) (Vu, C B et al., 2017; J Med Chem 60:458-473) instrument that can measure the functionality of the mutated channel by measuring the equivalent CFTR current (IEQ) generated by the polarized primary epithelial cells. We used a TECC-24 with a 24-channel electrode manifold allowing for the simultaneous measurement of the transepithelial voltage, VT, and transepithelial resistance, RT, under current clamp conditions, from 24 filters using a 24 well Costar filter plate. The design of the filters in the 24 well filter plates was exactly the same as the design of an individual Transwell filter used in the classical Ussing Chamber with a surface area of 0.33 cm^2. Each measured VT values were corrected for the electrode offset potential measured using buffer alone in a separate plate, and each measured RT values were then corrected for the combined solution series and empty filter resistances. The corrected VT and RT values were then used to calculate the equivalent current, IEQ using Ohm's law (IEQ=VT/RT). The area under the curve (AUC) for the time period between the forskolin peak IEQ response and at the time of bumetanide addition was also calculated using a one-third trapezoid method, in addition to calculating the IEQ. The assay was run in a 24-well format and all 24-wells were measured at the same time point giving a higher throughput for this assay. […]

The mark [3] stands for this setting: with co-corrector 2 μM, read-out: EC50 (with co-corrector).
[4] abbreviates: without co-corrector, read-out: EC50 (without co-corrector).

T2 sequence (P13569 with tags, fused parts or gaps DEL508-508): as above

The term EC50 denotes the concentration that produces a half-maximal response. On to `CCOc1ccc(C)cc1[C@@]1(C(=O)NS(=O)(=O)c2cccc3nc(C)ccc23)CCCO1` (single isomer, unassigned) [Example 2], for which the EC50 is 0.78 µM in assay [1] (setting [3]), 1.54 µM in assay [1] (setting [4]) and 0.0825 µM in assay [2]. Moreover, in assay [1] (without co-corrector), the Emax was 602%. Also, the “Emax (% Dual)” value in assay [2] stood at 318 % Dual.
On the same counts, the results for `COc1ccc(C)cc1C1(C(=O)NS(=O)(=O)c2cccc3nc(C)ccc23)CCC(c2ccccc2)O1` (stereo in doubt) [Example 7, (2S,5S)-2-(2-methoxy-5-methylphenyl)-N-(2-methylquinoline-5-sulfonyl)-5-phenyloxolane-2-carboxamide] are 0.33 µM, 0.53 µM, 0.0117 µM, 509% and 283 % Dual.
For `CCc1ccc(OCC(C)OC)c([C@@]2(C(=O)NS(=O)(=O)c3cccc4nc(C)ccc34)CCCO2)c1` (stereo in doubt) [Example 14, (2R)-2-{5-ethyl-2-[(2S)-2-methoxypropoxy]phenyl}-N-(2-methylquinoline-5-sulfonyl)oxolane-2-carboxamide], the EC50 in assay [1] (setting [3]) turned out to be 2.54 µM; in assay [1] (setting [4]), 3.49 µM; in assay [2], 0.244 µM. Moreover, the “Maximum % activity (with co-corrector)” value in assay [1] (with co-corrector 2 μM) was determined as 871%. Besides, the Emax in assay [1] (without co-corrector) was determined as 334%. Also, in assay [2], the “Emax (% Dual)” value is 161 % Dual.
For the compound `CCOc1ccc(C)cc1[C@]1(C(=O)NS(=O)(=O)c2cccc3nc(C)ccc23)CCCO1` [Example 1, (2S)-2-(2-ethoxy-5-methylphenyl)-N-(2-methylquinoline-5-sulfonyl)oxolane-2-carboxamide], the values for the EC50 in assay [1] (setting [3]), in assay [1] (setting [4]) and in assay [2] were 3.78 µM, 4.94 µM and 1.71 µM, respectively. In addition, the “Maximum % activity (with co-corrector)” value in assay [1] (with co-corrector 2 μM) amounted to 546%. In addition, in assay [1] (without co-corrector), the Emax worked out at 233%. In addition, the “Emax (% Dual)” value in assay [2] was found to be 226 % Dual.
Regarding `COc1ccc(C)cc1[C@@]1(C(=O)NS(=O)(=O)c2cccc3nc(C)ccc23)CC(C)(C)CO1` [Example 5, (2R)-2-(2-methoxy-5-methylphenyl)-4,4-dimethyl-N-(2-methylquinoline-5-sulfonyl)oxolane-2-carboxamide], the values for the EC50 in assay [1] (setting [3]), in assay [1] (setting [4]) and in assay [2] were 1.21 µM, 2.27 µM and 0.0078 µM, respectively. Also, the “Emax (% Dual)” value in assay [2] is 242 % Dual.
On to `CCOc1ccc(C)cc1[C@@]1(C(=O)NS(=O)(=O)c2cccc3nc(C4CC4)ccc23)CCCO1` [Example 6, (2R)—N-(2-cyclopropylquinoline-5-sulfonyl)-2-(2-ethoxy-5-methylphenyl)oxolane-2-carboxamide], for which the results for the EC50 in assay [1] (setting [3]), in assay [1] (setting [4]) and in assay [2] were 1 µM, 1.36 µM and 0.0195 µM, respectively. Further, the Emax in assay [1] (without co-corrector) is 712%. The “Emax (% Dual)” value in assay [2] amounted to 235 % Dual.
For `COc1ccc(C)cc1[C@@]1(C(=O)NS(=O)(=O)c2cccc3nc(C)ccc23)CC[C@@H](c2ccccc2)O1` [Example 8, (2R,5S)-2-(2-methoxy-5-methylphenyl)-N-(2-methylquinoline-5-sulfonyl)-5-phenyloxolane-2-carboxamide], the EC50 in assay [1] (setting [3]) was determined as 0.44 µM; in assay [1] (setting [4]) it was 0.59 µM; in assay [2], 0.0032 µM. Moreover, the Emax in assay [1] (without co-corrector) amounted to 702%. Moreover, the “Emax (% Dual)” value in assay [2] was determined as 339 % Dual.
In the case of `CCOc1ccc(CC)cc1[C@@]1(C(=O)NS(=O)(=O)c2cccc3nc(C)ccc23)CCCO1` [Example 9, (2R)-2-(2-ethoxy-5-ethylphenyl)-N-(2-methylquinoline-5-sulfonyl)oxolane-2-carboxamide], the EC50 in assay [1] (setting [3]) came to 0.84 µM; in assay [1] (setting [4]), 1.65 µM; in assay [2], 0.0337 µM. The Emax in assay [1] (without co-corrector) was determined as 865%. Besides, the “Emax (% Dual)” value in assay [2] is 256 % Dual.
For the compound `CCOc1ccc(CC)cc1[C@]1(C(=O)NS(=O)(=O)c2cccc3nc(C)ccc23)CCCO1` [Example 10, (2S)-2-(2-ethoxy-5-ethylphenyl)-N-(2-methylquinoline-5-sulfonyl)oxolane-2-carboxamide], the EC50 in assay [1] (setting [3]) was 2.7 µM; in assay [1] (setting [4]), 3.93 µM; in assay [2], more than 0.3 µM. In addition, the “Maximum % activity (with co-corrector)” value in assay [1] (with co-corrector 2 μM) came to 711%. Moreover, in assay [1] (without co-corrector), the Emax came to 303%. Besides, in assay [2], the “Emax (% Dual)” value was 129 % Dual.
Consider `COc1ccc(C)cc1[C@]1(C(=O)NS(=O)(=O)c2cccc3nc(C)ccc23)CC[C@H](c2ccccc2)O1` [Example 11, (2S,5R)-2-(2-methoxy-5-methylphenyl)-N-(2-methylquinoline-5-sulfonyl)-5-phenyloxolane-2-carboxamide], for which the EC50 in assay [1] (setting [3]) worked out at 1.19 µM; in assay [1] (setting [4]) it was 1.11 µM; in assay [2] it was 0.0171 µM. The Emax in assay [1] (without co-corrector) amounted to 542%. In addition, the “Emax (% Dual)” value in assay [2] came out at 158 % Dual.
